Experimental findings from patent publication US10281267B2, “Method for evaluating flow of skin, method for examining skin glow improvers, and skin glow improver” (Shiseido Company, Ltd., priority 2014, dated 2019) are described below.

For experiment [1], the system named is horny layer cells. The experiment can be described thus: Screening of specular reflectance improvers: arithmetic average roughness (Sa) of exfoliated horny layer cells by AFM. The conditions noted are these: for screening result: specular reflectance improver: 100 μl sample on horny layer cells, 30 minutes at 37° C., nine types of cosmetic ingredients screened. Format: cell-based. An excerpt: The surface roughness of skin can be determined by measuring the surface of horny layer cells sampled with a strip of adhesive tape and the like using a microscope such as an atomic force microscope. Surface roughness can be calculated in terms of arithmetic average roughness (Sa) as defined in ISO25178 by acquiring 3D-scanned images captured using an atomic force microscope, correcting the inclination of the 3D shape by subtracting those images applicable to a Gaussian filter having a half width of 2 μm, displaying the images, and calculating the average of absolute values of the Z axis for each XY coordinate.
First, the arithmetic average roughness (Sa) of horny layer cells is measured (S11). Next, a sample is applied to the horny layer cells (S12). Then, the arithmetic average roughness (Sa) of the horny layer cells to which the sample has been applied is measured (S13). Next, the rate of decrease of the arithmetic average roughness (Sa) of the horny layer cells to which the sample was applied is determined relative to the arithmetic average roughness of the horny layer cells to which the sample was not applied (S14).
On the other hand, horny layer cells were exfoliated from the cheeks of the subjects using adhesive strips (Post-It®, 3M Corp.). Next, double-sided adhesive tape was adhered to a slide glass and the exfoliated horny layer cells were transferred to the slide glass. Moreover, the arithmetic average roughness (Sa) of five horny layer cells was measured using an AFM attached to the Optelics H1200A 3CCD real color confocal microscope (Lasertec Corp.) followed by determination of the average value thereof.
Horny layer cells were exfoliated from the cheeks of subjects using adhesive strips (Post-It®, 3M Corp.). Next, double-sided adhesive tape was adhered to a slide glass and the exfoliated horny layer cells were transferred to the slide glass. Moreover, the arithmetic average roughness (Sa) of five horny layer cells was measured using an AFM attached to the Optelics H1200A 3CCD real color confocal microscope (Lasertec Corp.) followed by determination of the average value thereof. Next, 100 μl of a candidate sample were dropped onto the horny layer cells followed by incubating for 30 minutes at 37° C. Moreover, arithmetic average roughness (Sa) of the aforementioned five horny layer cells was then measured in the same manner followed by determination of the average value thereof.

Experiment [2] deals with horny layer cells. The description is as above. Format: cell-based. The settings on record: trimethylglycine alone.

Entries after “also recorded” stand apart in the source; their conditions may differ.

Consider `O=C(O)CO` [glycolic acid], for which the “screening result: specular reflectance improver” value (shortened to “screening result”) in the experiment on horny layer cells [1] was “determined to be specular reflectance improvers”. Moreover, the “arithmetic average roughness (Sa) of horny layer cells” value in the experiment on horny layer cells [1] (concentration 4% by weight to 40% by weight, FIG. 20) is reported as “decreases significantly”.
In the case of `COc1ccc(C(=O)[O-])c(O)c1.[K+]` [potassium 4-methoxysalicylate], the “rate of decrease of arithmetic average roughness (Sa) of horny layer cells” value in the experiment on horny layer cells [1] (4-MSK at 0, 0.1, 1.0, 3.0 and 10.0% by weight, FIG. 8) is listed as “dose-dependent increase in the rate of decrease of arithmetic average roughness (Sa) up to 3.0% by weight”. Also, the “screening result” value in the experiment with horny layer cells [1] is given as “determined to be specular reflectance improvers”. In addition, the “arithmetic average roughness (Sa) of horny layer cells” value with horny layer cells [1] (concentration 3% by weight to 10% by weight, FIG. 13) was “decreases significantly”.
Turning to `O=C([O-])c1ccccc1O.[Na+]` [sodium salicylate, sodium 2-hydroxybenzoate], in the experiment with horny layer cells [1], the “screening result” value is “determined to be specular reflectance improvers”.
`C[N+](C)(C)CC(=O)[O-]` [trimethylglycine]: in the experiment with horny layer cells [1] (TMG alone at 0, 5 and 10% by weight, FIG. 9), the “rate of decrease of arithmetic average roughness (Sa) of horny layer cells” value is given as “does not have the effect of smoothing the horny layer or improving skin glow; also recorded: no differences in the rates of decrease of arithmetic average roughness (Sa); also recorded: did not have an effect on the rate of decrease of Sa”. In the experiment on horny layer cells [2], the “specular reflectance of the skin” value is “confirmed to not be improved”.
